These results are taken from US8048895B2, “Kappa opioid receptor ligands” (priority 2008, dated 2011).

What all share (type): biochemical
Test [1] concerns the target T1, cloned human μ opioid receptor (Homo sapiens, UniProt P35372).
T1 construct: expressed in transfected cells
The experiment in a line: Inhibition of DAMGO-stimulated [35S]GTPγS binding. An excerpt:
(§1) Measures of opioid receptor antagonism and specificity were obtained by monitoring the ability of selected test compounds to inhibit stimulation of [^35S]GTPγS binding produced by the selective agonists (D-Ala^2, MePhe^4, Gly-ol^5)enkephalin (DAMGO, mu receptor), cyclo[D-Pen^2, D-Pen^5]enkephalin (DPDPE, delta) and 5,7,8-(−)-N-methyl-N-[7-(1-pyrrolidinyl)-1-oxaspiro[4,5]dec-8-yl]benzeneacetamide (U69,593, kappa) in cloned human receptors, Table 1.
(Binding of GTPγS marks nucleotide exchange on a G protein.)

Test [2] addresses T2, cloned human δ opioid receptor (Homo sapiens, UniProt P41143).
T2 construct: expressed in transfected cells
The experiment in a line: Inhibition of DPDPE-stimulated [35S]GTPγS binding. Conditions: read-out: δ, DPDPE Ke.
Description: as §1

Test [3] concerns the target T3, cloned human κ opioid receptor (Homo sapiens, UniProt P41145).
T3 construct: expressed in transfected cells
Kind of test: Inhibition of U69,593-stimulated [35S]GTPγS binding.
Description: as §1

The structures appear in SMILES notation.

T3 sequence (P41145 whole entry): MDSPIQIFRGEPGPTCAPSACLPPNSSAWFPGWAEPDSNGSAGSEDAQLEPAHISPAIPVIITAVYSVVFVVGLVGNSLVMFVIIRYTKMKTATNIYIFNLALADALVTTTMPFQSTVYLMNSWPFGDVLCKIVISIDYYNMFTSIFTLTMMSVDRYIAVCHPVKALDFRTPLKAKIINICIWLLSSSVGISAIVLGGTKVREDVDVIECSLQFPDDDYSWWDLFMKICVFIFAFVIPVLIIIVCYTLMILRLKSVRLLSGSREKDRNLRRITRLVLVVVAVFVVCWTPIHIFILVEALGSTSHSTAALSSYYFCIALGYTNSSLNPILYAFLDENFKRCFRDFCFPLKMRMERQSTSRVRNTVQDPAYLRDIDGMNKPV
T1 sequence (P35372 whole entry): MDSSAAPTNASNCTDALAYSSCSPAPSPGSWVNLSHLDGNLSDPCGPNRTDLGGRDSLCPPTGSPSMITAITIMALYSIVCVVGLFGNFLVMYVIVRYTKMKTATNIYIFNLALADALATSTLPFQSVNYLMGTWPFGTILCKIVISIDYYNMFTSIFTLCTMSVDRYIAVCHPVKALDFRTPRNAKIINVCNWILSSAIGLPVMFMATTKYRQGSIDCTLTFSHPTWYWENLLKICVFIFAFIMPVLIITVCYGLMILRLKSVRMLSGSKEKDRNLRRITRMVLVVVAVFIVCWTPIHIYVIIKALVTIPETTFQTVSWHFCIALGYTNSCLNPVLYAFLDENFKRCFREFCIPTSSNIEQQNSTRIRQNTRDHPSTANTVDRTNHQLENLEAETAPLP
T2 sequence (P41143 whole entry): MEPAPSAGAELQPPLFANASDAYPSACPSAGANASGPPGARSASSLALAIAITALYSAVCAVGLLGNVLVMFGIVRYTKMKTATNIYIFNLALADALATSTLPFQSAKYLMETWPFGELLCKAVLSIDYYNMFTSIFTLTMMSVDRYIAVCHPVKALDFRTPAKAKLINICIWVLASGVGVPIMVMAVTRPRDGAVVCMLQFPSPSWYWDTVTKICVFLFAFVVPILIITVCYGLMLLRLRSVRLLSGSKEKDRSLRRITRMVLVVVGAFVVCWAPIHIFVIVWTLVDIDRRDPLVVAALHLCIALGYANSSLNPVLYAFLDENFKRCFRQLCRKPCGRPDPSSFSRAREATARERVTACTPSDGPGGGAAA

Regarding `CC(C)[C@@H](CN1CC[C@@](C)(c2cccc(O)c2)[C@@H](C)C1)NC(=O)[C@@]1(C)Cc2ccc(O)cc2CN1` [RTI-5989-240, (3R)-7-Hydroxy-N-[(1S)-1-{[(3R,4R)-4-(3-hydroxyphenyl)-3,4-dimethylpiperidin-1-yl]methyl}-2-methylpropyl]-3-methyl-1,2,3,4-tetrahydroisoquinoline-3-carboxamide], the Kb came out at 3.6 nM in test [1], 840 nM in test [2] and 0.03 nM in test [3]. Besides, the “μ, DAMGO Ke” value in test [1] (inhibition of DAMGO-stimulated [35S]GTPγS binding, cloned human μ receptor) was 3.6 nM. In addition, the “potency for the kappa opioid receptor (in words)” value in test [3] ([35S]GTPγS in vitro functional assay) is listed as “high potency”. Moreover, in test [3] (functional assay), the “selectivity for the kappa opioid receptor relative to mu and delta (in words)” value is reported as “highly selective”. The “κ, U69,593 Ke” value in test [3] (inhibition of U69,593-stimulated [35S]GTPγS binding, cloned human κ receptor) is recorded as 0.03 nM. In addition, the δ/κ in test [3] (ratio of Ke values, δ over κ) was 28,000. The μ/κ in test [3] (ratio of Ke values, μ over κ) is 120.
